Reference: patent publication US20220288048A1, “PIMAVANSERIN FOR TREATING SCHIZOPHRENIA OR FOR TREATING PSYCHOSIS SECONDARY TO NEURODEGENERATIVE DISORDERS OR DEPRESSIVE DISORDER” (ACADIA Pharmaceuticals Inc., priority 2019, published 2022)

What was measured:
[1] = tested on: scPCP-treated C57BL/6J mice; assay: 10-min social interaction test in scPCP-treated mice; assay type: in vivo; conditions: pimavanserin 3 and 6 mg/kg ip, alone
Protocol: Negative symptoms model: The behavioral assay utilized to assess negative symptoms was social interaction (SI) task.
Briefly, mice were habituated to the test arena (i.e., the NOR box) for 30 minutes prior to the test day. Pairs of mice, unfamiliar to each other, received either the same treatment (e.g., vehicle and vehicle; N=10 pairs) or different treatments (e.g., vehicle; N=10 and phencyclidine (PCP) 10 mg/kg; N=10). After washout, they were placed in the test arena together for 10 minutes. A heavy object made of Plexiglas or metal was placed in the center of the test arena to quantify the time and nature of interaction of the test animals with an unfamiliar object or an unfamiliar animal. After the 10 min test phase, the object and the arena were cleaned with 70% ethanol to remove any olfactory trails. Behavior was recorded on video for subsequent blind scoring.
The following four behaviors were scored for each animal: • a) Sniffing: A normal mouse engages in sniffing the con-specific mouse's body, including the anogenital area • b) Following: A normal mouse pursues a con-specific mouse around the arena • c) Avoiding: A normal mouse avoids the con-specific mouse and move away from a pursuing mouse if approached • d) Object Exploration: A normal mouse explores the object that is placed in the center of the test arena.
scPCP treatment involved intraperitoneal injection (ip) of 10 mg/kg PCP to male C57BL/6J mice, twice daily (bid) for 7 days, followed by 7 days washout. To test the effect of atypical APD or pimavanserin in scPCP-treated mice (N=10 pairs of mice per group), risperidone was administered as 0.05 mg/kg ip or 0.2 mg/kg ip; and pimavanserin was administered as 3 mg/kg ip or 6 mg/kg ip to scPCP-treated mice 45 minutes prior to the commencement of the social interaction task in the 10 min social interaction test.

[2] = tested on: subjects with schizophrenia who have predominant negative symptoms; assay: Phase 2, 26-week placebo-controlled study of adjunctive pimavanserin for negative symptoms of schizophrenia: efficacy; assay type: in vivo, human; conditions: for NSA-16 total score vs placebo, effect size: Week 26; for NSA-16 total score, change from Baseline to Week 26: placebo −8.5
Protocol: (§1) This study is conducted as a Phase 2, 26-week, randomized, double-blind, placebo-controlled, multicenter, multinational outpatient study in subjects with schizophrenia who have predominant negative symptoms while on adequate treatment with an antipsychotic. Schizophrenia is defined by the Diagnostic and Statistical Manual of Mental Disorders, Fifth Edition (DSM-5), confirmed by a customized module of the Structured Clinical Interview for DSM-5, Clinical Trials Version (SCID-5-CT). This study enrolls approximately 403 subjects with predominant negative symptoms of schizophrenia. In the study, patients were randomized to receive either pimavanserin or placebo added to their current background antipsychotic treatment for 26 weeks in duration. At baseline all patients were started on a daily dose of 20 mg of pimavanserin or placebo with dose adjustments allowed up to 34 mg or down to 10 mg during the first eight weeks of treatment. Following week eight no further dose modifications were allowed for the remaining 18 weeks in the study.
The daily dose of the main antipsychotic must remain stable and may not be changed from Screening through the duration of the study. […] At the Weeks 2, 4, and 8 visits, the daily dose of pimavanserin may remain at 20 mg or it may be either increased to 34 mg (for symptom improvement) or decreased to 10 mg daily (if the 20 mg dose is not well tolerated). After the Week 8 visit, no study drug dose changes may be made. Clinic visits occurring after Baseline will be conducted at Weeks 2, 4, 8, 14, 20, and 26 (End-of-Study [EOS]/Early Termination [ET] visit).
The test products are pimavanserin 10 mg and 17 mg tablets or matching placebo. Daily doses of pimavanserin to be studied are 10 mg (provided as 1×10 mg pimavanserin tablet and 1× matching placebo); 20 mg (2×10 mg pimavanserin tablets); or 34 mg (2×17 mg pimavanserin tablets); or matching placebo (2× placebo tablets); delivered by mouth. Seventeen (17) mg of the active moiety is dosed as 20 mg of the salt pimavanserin tartrate; 10 mg of the active moiety is dosed as 11.8 mg of the salt pimavanserin tartrate. The duration of participation for individual subjects will be up to approximately 34 weeks.
Primary Efficacy Endpoint is the change from Baseline to Week 26 in the Negative Symptom Assessment-16 (NSA-16) total score.
Secondary Endpoints Key Secondary Endpoint is the change from Baseline to Week 26 in the Personal and Social Performance Scale (PSP) score.

[3] = tested on: subjects with schizophrenia who have predominant negative symptoms; assay: Phase 2, 26-week adjunctive pimavanserin study: safety; assay type: in vivo, human; conditions: 26-week study
Protocol: as §1, with “Following week eight no further dose modifications were allowed for the remaining 18 weeks in the study.” left out
Safety will be evaluated by analyses of adverse events, vital signs, ECGs, physical examination results, and clinical laboratory tests (including urinalysis), and the Abnormal Involuntary Movement Scale (AIMS), the Barnes Akathisia Rating Scale (BARS), the Simpson-Angus Extrapyramidal Side Effects Scale (SAS), and the Columbia Suicide Severity Rating Scale (C-SSRS).

## CC(C)COc1ccc(CNC(=O)N(Cc2ccc(F)cc2)C2CCN(C)CC2)cc1 [Pimavanserin, N-(4-Fluorophenylmethyl)-N-(1-methylpiperidin-4-yl)-N′-(4-(2-methylpropyloxy)phenylmethyl)carbamide]
[1]
  Restoration of SI deficit in scPCP-treated mice: did not restore SI deficit
[2]; 34 mg dose
  NSA-16 total score vs placebo, effect size: 0.34
[2]; all pimavanserin doses (10-34 mg daily), added to background antipsychotic
  NSA-16 total score, change from Baseline to Week 26: −10.4
[2]; all pimavanserin doses
  NSA-16 total score vs placebo, effect size: 0.21
[2]; key secondary endpoint, placebo 8.1
  Personal and Social Performance Scale, change from Baseline to Week 26: 8.1
[2]; patients who received the 34 mg fixed dose after week 8 (n=107)
  NSA-16 total score, change from Baseline to Week 26: −11.6
[3]
  Vital signs, weight, metabolic syndrome, and extrapyramidal symptoms compared to adjunctive placebo: did not result in clinically significant differences
[3]; adjunctive pimavanserin
  Rate of adverse events: 40%
